Literature values in patent publication US5891465A, “Delivery of biologically active material in a liposomal formulation for administration into the mouth” (BioZone Laboratories, Inc., priority 1996, dated 1999).

Key:
[1] = tablets under the tongue
[2] = tablet for absorption through the buccal mucosa

O=[N+]([O-])OCC(CO[N+](=O)[O-])O[N+](=O)[O-] [nitroglycerin]
onset [1]: rapid onset

C[C@]12CCC(=O)C=C1CC[C@@H]1[C@@H]2CC[C@@]2(C)[C@H]1CC[C@]2(C)O [methyltestosterone]
androgenic activity relative to oral tablets [2]: twice the androgenic activity
